Data reported in the supplement of paper PMC10307832.

Experiments:
Experiment in all cases: relative viability (nuclei count vs DMSO), 5 days (fraction); higher = more cells survive
Erlotinib + Linsitinib = compound: C#Cc1cccc(Nc2ncnc3cc(OCCOC)c(OCCOC)cc23)c1 [Erlotinib] + C[C@]1(O)C[C@@H](c2nc(-c3ccc4ccc(-c5ccccc5)nc4c3)c3c(N)nccn32)C1 [Linsitinib] (partner 1 µM)
How it was run: (§1)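 Lung cancer cell lines were pin-tool dosed in 1536-well plates on the day after seeding, with either a lone drug or a fixed anchor-drug dose plus five library-drug doses (not always all listed) in √10 steps. Nuclei were counted on 4× images after 5 days. Relative viability is the ratio of treated-well to vehicle-well nuclei counts, with each value a median of duplicate plates.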

AT9283 + Trametinib = compound: O=C(Nc1c[nH]nc1-c1nc2ccc(CN3CCOCC3)cc2[nH]1)NC1CC1 [AT9283] + CC(=O)Nc1cccc(-n2c(=O)n(C3CC3)c(=O)c3c(Nc4ccc(I)cc4F)n(C)c(=O)c(C)c32)c1 [Trametinib] (partner 0.02 µM)
How it was run: as §1

AT9283 + Lapatinib = compound: O=C(Nc1c[nH]nc1-c1nc2ccc(CN3CCOCC3)cc2[nH]1)NC1CC1 [AT9283] + CS(=O)(=O)CCNCc1ccc(-c2ccc3ncnc(Nc4ccc(OCc5cccc(F)c5)c(Cl)c4)c3c2)o1 [Lapatinib] (partner 2 µM)
How it was run: as §1

AT9283 + Dasatinib = compound: O=C(Nc1c[nH]nc1-c1nc2ccc(CN3CCOCC3)cc2[nH]1)NC1CC1 [AT9283] + Cc1nc(Nc2ncc(C(=O)Nc3c(C)cccc3Cl)s2)cc(N2CCN(CCO)CC2)n1 [Dasatinib] (partner 0.075 µM)
How it was run: as §1

AT9283 + AZD7762 = compound: O=C(Nc1c[nH]nc1-c1nc2ccc(CN3CCOCC3)cc2[nH]1)NC1CC1 [AT9283] + NC(=O)Nc1cc(-c2cccc(F)c2)sc1C(=O)N[C@H]1CCCNC1 [AZD7762] (partner 0.2 µM)
How it was run: as §1

In the case of EMC-BAC-2, the relative viability (Erlotinib + Linsitinib; first compound 0.02 µM) is reported as 0.795, the relative viability (Erlotinib + Linsitinib; first compound 0.2 µM) is reported as 0.705 and the relative viability (Erlotinib + Linsitinib; first compound 0.6325 µM) is reported as 0.703. The relative viability (Erlotinib + Linsitinib; first compound 2 µM) was 0.584, the relative viability (AT9283 + Trametinib; first compound 0.003 µM) was 0.923 and the relative viability (AT9283 + Trametinib; first compound 0.03 µM) was 0.58. The relative viability (AT9283 + Trametinib; first compound 0.09487 µM) was 0.362, the relative viability (AT9283 + Trametinib; first compound 0.3 µM) was 0.336 and the relative viability (AT9283 + Lapatinib; first compound 0.003 µM) was 0.875. The relative viability (AT9283 + Lapatinib; first compound 0.03 µM) was 0.599, the relative viability (AT9283 + Lapatinib; first compound 0.09487 µM) was 0.229 and the relative viability (AT9283 + Lapatinib; first compound 0.3 µM) was 0.225. It also gave a relative viability (AT9283 + Dasatinib; first compound 0.003 µM) of 0.273, a relative viability (AT9283 + Dasatinib; first compound 0.03 µM) of 0.245 and a relative viability (AT9283 + Dasatinib; first compound 0.09487 µM) of 0.131. For the same cell line, the relative viability (AT9283 + Dasatinib; first compound 0.3 µM) was 0.142, the relative viability (AT9283 + AZD7762; first compound 0.003 µM) was 1.04 and the relative viability (AT9283 + AZD7762; first compound 0.03 µM) was 0.411. For the same cell line, the relative viability (AT9283 + AZD7762; first compound 0.09487 µM) was 0.349 and the relative viability (AT9283 + AZD7762; first compound 0.3 µM) was 0.281.

NCI-H2085 was tested, and the relative viability (Erlotinib + Linsitinib; first compound 0.02 µM) was 0.858, the relative viability (Erlotinib + Linsitinib; first compound 0.2 µM) was 0.728 and the relative viability (Erlotinib + Linsitinib; first compound 0.6325 µM) was 0.664. It also gave a relative viability (Erlotinib + Linsitinib; first compound 2 µM) of 0.76, a relative viability (AT9283 + Trametinib; first compound 0.003 µM) of 0.532 and a relative viability (AT9283 + Trametinib; first compound 0.03 µM) of 0.453. The relative viability (AT9283 + Trametinib; first compound 0.09487 µM) was 0.395, the relative viability (AT9283 + Trametinib; first compound 0.3 µM) was 0.318 and the relative viability (AT9283 + Lapatinib; first compound 0.003 µM) was 0.798. For the same cell line, the relative viability (AT9283 + Lapatinib; first compound 0.03 µM) was 0.36, the relative viability (AT9283 + Lapatinib; first compound 0.09487 µM) was 0.297 and the relative viability (AT9283 + Lapatinib; first compound 0.3 µM) was 0.382. The relative viability (AT9283 + Dasatinib; first compound 0.003 µM) was 0.231, the relative viability (AT9283 + Dasatinib; first compound 0.03 µM) was 0.238 and the relative viability (AT9283 + Dasatinib; first compound 0.09487 µM) was 0.224. For the same cell line, the relative viability (AT9283 + Dasatinib; first compound 0.3 µM) was 0.2, the relative viability (AT9283 + AZD7762; first compound 0.003 µM) was 0.968 and the relative viability (AT9283 + AZD7762; first compound 0.03 µM) was 0.969. The relative viability (AT9283 + AZD7762; first compound 0.09487 µM) was 0.749 and the relative viability (AT9283 + AZD7762; first compound 0.3 µM) was 0.353.

Cell Line NCI-H1355 has a relative viability (Erlotinib + Linsitinib; first compound 0.02 µM) of 0.921, a relative viability (Erlotinib + Linsitinib; first compound 0.2 µM) of 0.815 and a relative viability (Erlotinib + Linsitinib; first compound 0.6325 µM) of 0.723. It also gave a relative viability (Erlotinib + Linsitinib; first compound 2 µM) of 0.559, a relative viability (AT9283 + Trametinib; first compound 0.003 µM) of 0.446 and a relative viability (AT9283 + Trametinib; first compound 0.03 µM) of 0.427. It also gave a relative viability (AT9283 + Trametinib; first compound 0.09487 µM) of 0.354, a relative viability (AT9283 + Trametinib; first compound 0.3 µM) of 0.179 and a relative viability (AT9283 + Lapatinib; first compound 0.003 µM) of 1.01. The relative viability (AT9283 + Lapatinib; first compound 0.03 µM) was 0.911, the relative viability (AT9283 + Lapatinib; first compound 0.09487 µM) was 0.845 and the relative viability (AT9283 + Lapatinib; first compound 0.3 µM) was 0.168. The relative viability (AT9283 + Dasatinib; first compound 0.003 µM) was 0.634, the relative viability (AT9283 + Dasatinib; first compound 0.03 µM) was 0.727 and the relative viability (AT9283 + Dasatinib; first compound 0.09487 µM) was 0.296. For the same cell line, the relative viability (AT9283 + Dasatinib; first compound 0.3 µM) was 0.273, the relative viability (AT9283 + AZD7762; first compound 0.003 µM) was 0.9 and the relative viability (AT9283 + AZD7762; first compound 0.03 µM) was 0.568. It also gave a relative viability (AT9283 + AZD7762; first compound 0.09487 µM) of 0.602 and a relative viability (AT9283 + AZD7762; first compound 0.3 µM) of 0.23.

Cell Line NCI-H358 has a relative viability (Erlotinib + Linsitinib; first compound 0.02 µM) of 0.817, a relative viability (Erlotinib + Linsitinib; first compound 0.2 µM) of 0.558 and a relative viability (Erlotinib + Linsitinib; first compound 0.6325 µM) of 0.377. The relative viability (Erlotinib + Linsitinib; first compound 2 µM) was 0.292, the relative viability (AT9283 + Trametinib; first compound 0.003 µM) was 0.144 and the relative viability (AT9283 + Trametinib; first compound 0.03 µM) was 0.105. The relative viability (AT9283 + Trametinib; first compound 0.09487 µM) was 0.081, the relative viability (AT9283 + Trametinib; first compound 0.3 µM) was 0.0743 and the relative viability (AT9283 + Lapatinib; first compound 0.003 µM) was 0.413. For the same cell line, the relative viability (AT9283 + Lapatinib; first compound 0.03 µM) was 0.192, the relative viability (AT9283 + Lapatinib; first compound 0.09487 µM) was 0.176 and the relative viability (AT9283 + Lapatinib; first compound 0.3 µM) was 0.16. The relative viability (AT9283 + Dasatinib; first compound 0.003 µM) was 0.147, the relative viability (AT9283 + Dasatinib; first compound 0.03 µM) was 0.1 and the relative viability (AT9283 + Dasatinib; first compound 0.09487 µM) was 0.0732. For the same cell line, the relative viability (AT9283 + Dasatinib; first compound 0.3 µM) was 0.0691, the relative viability (AT9283 + AZD7762; first compound 0.003 µM) was 0.431 and the relative viability (AT9283 + AZD7762; first compound 0.03 µM) was 0.178. The relative viability (AT9283 + AZD7762; first compound 0.09487 µM) was 0.186 and the relative viability (AT9283 + AZD7762; first compound 0.3 µM) was 0.175.

NCI-H1755 showed a relative viability (Erlotinib + Linsitinib; first compound 0.02 µM) of 1.05, a relative viability (Erlotinib + Linsitinib; first compound 0.6325 µM) of 0.955 and a relative viability (Erlotinib + Linsitinib; first compound 2 µM) of 0.976. The relative viability (AT9283 + Trametinib; first compound 0.003 µM) was 0.8, the relative viability (AT9283 + Trametinib; first compound 0.03 µM) was 0.815 and the relative viability (AT9283 + Trametinib; first compound 0.09487 µM) was 0.637. The relative viability (AT9283 + Trametinib; first compound 0.3 µM) was 0.557, the relative viability (AT9283 + Lapatinib; first compound 0.003 µM) was 1.08 and the relative viability (AT9283 + Lapatinib; first compound 0.03 µM) was 0.775. The relative viability (AT9283 + Lapatinib; first compound 0.09487 µM) was 0.357, the relative viability (AT9283 + Lapatinib; first compound 0.3 µM) was 0.399 and the relative viability (AT9283 + Dasatinib; first compound 0.003 µM) was 0.451. The relative viability (AT9283 + Dasatinib; first compound 0.03 µM) was 0.437, the relative viability (AT9283 + Dasatinib; first compound 0.09487 µM) was 0.265 and the relative viability (AT9283 + Dasatinib; first compound 0.3 µM) was 0.272. The relative viability (AT9283 + AZD7762; first compound 0.003 µM) was 0.466, the relative viability (AT9283 + AZD7762; first compound 0.03 µM) was 0.401 and the relative viability (AT9283 + AZD7762; first compound 0.09487 µM) was 0.326. The relative viability (AT9283 + AZD7762; first compound 0.3 µM) was 0.267.

NCI-H647 was tested, and the relative viability (Erlotinib + Linsitinib; first compound 0.02 µM) was 1.2, the relative viability (Erlotinib + Linsitinib; first compound 0.2 µM) was 1.15 and the relative viability (Erlotinib + Linsitinib; first compound 0.6325 µM) was 1.19. The relative viability (Erlotinib + Linsitinib; first compound 2 µM) was 0.971, the relative viability (AT9283 + Trametinib; first compound 0.003 µM) was 0.46 and the relative viability (AT9283 + Trametinib; first compound 0.03 µM) was 0.47. It also gave a relative viability (AT9283 + Trametinib; first compound 0.09487 µM) of 0.138, a relative viability (AT9283 + Trametinib; first compound 0.3 µM) of 0.173 and a relative viability (AT9283 + Lapatinib; first compound 0.003 µM) of 1.06. The relative viability (AT9283 + Lapatinib; first compound 0.03 µM) was 0.124, the relative viability (AT9283 + Lapatinib; first compound 0.09487 µM) was 0.123 and the relative viability (AT9283 + Lapatinib; first compound 0.3 µM) was 0.0895. The relative viability (AT9283 + Dasatinib; first compound 0.003 µM) was 0.15, the relative viability (AT9283 + Dasatinib; first compound 0.03 µM) was 0.114 and the relative viability (AT9283 + Dasatinib; first compound 0.09487 µM) was 0.036. For the same cell line, the relative viability (AT9283 + Dasatinib; first compound 0.3 µM) was 0.0661, the relative viability (AT9283 + AZD7762; first compound 0.003 µM) was 0.524 and the relative viability (AT9283 + AZD7762; first compound 0.03 µM) was 0.13. For the same cell line, the relative viability (AT9283 + AZD7762; first compound 0.09487 µM) was 0.0611 and the relative viability (AT9283 + AZD7762; first compound 0.3 µM) was 0.0591.

BEN gave a relative viability (Erlotinib + Linsitinib; first compound 0.02 µM) of 0.96, a relative viability (Erlotinib + Linsitinib; first compound 0.2 µM) of 0.893 and a relative viability (Erlotinib + Linsitinib; first compound 0.6325 µM) of 1.16. For the same cell line, the relative viability (Erlotinib + Linsitinib; first compound 2 µM) was 0.891, the relative viability (AT9283 + Trametinib; first compound 0.003 µM) was 0.838 and the relative viability (AT9283 + Trametinib; first compound 0.03 µM) was 1.17. The relative viability (AT9283 + Trametinib; first compound 0.09487 µM) was 0.568, the relative viability (AT9283 + Trametinib; first compound 0.3 µM) was 0.368 and the relative viability (AT9283 + Lapatinib; first compound 0.003 µM) was 0.582. The relative viability (AT9283 + Lapatinib; first compound 0.03 µM) was 0.546, the relative viability (AT9283 + Lapatinib; first compound 0.09487 µM) was 0.158 and the relative viability (AT9283 + Lapatinib; first compound 0.3 µM) was 0.243. For the same cell line, the relative viability (AT9283 + Dasatinib; first compound 0.003 µM) was 0.256, the relative viability (AT9283 + Dasatinib; first compound 0.03 µM) was 0.369 and the relative viability (AT9283 + Dasatinib; first compound 0.09487 µM) was 0.311. The relative viability (AT9283 + Dasatinib; first compound 0.3 µM) was 0.14, the relative viability (AT9283 + AZD7762; first compound 0.003 µM) was 0.595 and the relative viability (AT9283 + AZD7762; first compound 0.03 µM) was 0.62. The relative viability (AT9283 + AZD7762; first compound 0.09487 µM) was 0.327 and the relative viability (AT9283 + AZD7762; first compound 0.3 µM) was 0.321.
